Each structure is given as a SMILES string. Where two headings read alike, the source gives them in different places.

The values below come from patent WO2019242687A1, “1,3-dioxane-4,6-dione compound, and preparation method, pharmaceutical composition, and application thereof” (Shanghai Institute of Materia Medica of CAS, priority 2018, dated 2018).

For one test, the target named is T1, SIRT1 (Homo sapiens, UniProt Q96EB6).
T1 sequence (Q96EB6 1-747): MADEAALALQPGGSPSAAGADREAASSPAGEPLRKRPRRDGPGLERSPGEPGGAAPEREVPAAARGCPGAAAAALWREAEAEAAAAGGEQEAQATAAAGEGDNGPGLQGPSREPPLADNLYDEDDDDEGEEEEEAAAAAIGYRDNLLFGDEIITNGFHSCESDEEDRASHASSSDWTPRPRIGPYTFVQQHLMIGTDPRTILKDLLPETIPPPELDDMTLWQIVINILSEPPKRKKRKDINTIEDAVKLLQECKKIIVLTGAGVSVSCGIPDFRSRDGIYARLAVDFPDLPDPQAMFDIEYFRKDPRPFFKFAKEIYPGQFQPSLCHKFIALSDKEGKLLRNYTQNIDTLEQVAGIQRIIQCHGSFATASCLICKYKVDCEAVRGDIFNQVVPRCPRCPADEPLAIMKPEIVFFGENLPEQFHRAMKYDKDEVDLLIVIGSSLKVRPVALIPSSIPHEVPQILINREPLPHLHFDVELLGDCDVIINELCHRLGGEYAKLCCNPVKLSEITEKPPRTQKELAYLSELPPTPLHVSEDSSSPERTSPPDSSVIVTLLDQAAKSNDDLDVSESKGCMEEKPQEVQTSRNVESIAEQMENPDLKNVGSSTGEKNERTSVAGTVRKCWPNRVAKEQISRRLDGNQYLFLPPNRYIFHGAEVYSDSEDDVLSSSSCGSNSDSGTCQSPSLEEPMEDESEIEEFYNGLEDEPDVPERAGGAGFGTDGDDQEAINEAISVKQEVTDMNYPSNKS
Description: SIRT1 enzyme activity test (deacetylase inhibition). The test is classed as biochemical. Particulars: 1 μM SIRT1, 500 μM NAD+, 10 μM substrate peptide.

Test [1] deals with p53 acetylation levels in SH-SY5Y human neuroblastoma cells. Description: Effect of compounds on p53 acetylation level in cells (Western blot). The test is classed as cell-based. The following applies: ATRA-induced differentiation, compound 10 μM, 2 h, Figure 5.
The target of a further test is T2, SIRT2 (Homo sapiens, UniProt Q8IXJ6).
T2 sequence (Q8IXJ6 1-389): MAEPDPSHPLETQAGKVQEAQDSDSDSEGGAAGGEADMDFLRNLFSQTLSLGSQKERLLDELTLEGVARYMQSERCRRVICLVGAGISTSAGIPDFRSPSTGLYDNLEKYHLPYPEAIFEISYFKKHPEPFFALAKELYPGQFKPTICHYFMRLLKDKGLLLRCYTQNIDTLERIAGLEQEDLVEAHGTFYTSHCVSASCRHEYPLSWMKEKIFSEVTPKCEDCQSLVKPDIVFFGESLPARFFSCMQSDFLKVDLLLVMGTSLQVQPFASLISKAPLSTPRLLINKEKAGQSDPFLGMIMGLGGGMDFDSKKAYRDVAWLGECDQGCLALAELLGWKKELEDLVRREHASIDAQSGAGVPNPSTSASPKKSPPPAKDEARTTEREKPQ
Description: Inhibition of SIRT2 (as SIRT1 IC50 method).

For the next test, the target named is T3, SIRT3 (Homo sapiens, UniProt Q9NTG7).
T3 sequence (Q9NTG7 1-399): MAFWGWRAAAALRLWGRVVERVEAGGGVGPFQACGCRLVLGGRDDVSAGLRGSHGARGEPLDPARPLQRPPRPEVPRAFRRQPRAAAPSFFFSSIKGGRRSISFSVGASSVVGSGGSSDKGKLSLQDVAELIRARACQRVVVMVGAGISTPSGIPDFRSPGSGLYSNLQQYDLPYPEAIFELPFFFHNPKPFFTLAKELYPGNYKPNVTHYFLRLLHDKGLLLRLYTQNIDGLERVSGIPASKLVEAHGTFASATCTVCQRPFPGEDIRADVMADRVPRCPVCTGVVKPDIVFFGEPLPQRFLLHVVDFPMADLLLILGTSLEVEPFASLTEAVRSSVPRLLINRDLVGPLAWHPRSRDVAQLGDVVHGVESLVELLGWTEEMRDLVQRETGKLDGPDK
Description: Inhibition of SIRT3 (as SIRT1 IC50 method).

The next test has as its target T4, SIRT5 (Homo sapiens, UniProt Q9NXA8).
T4 sequence (Q9NXA8 37-310): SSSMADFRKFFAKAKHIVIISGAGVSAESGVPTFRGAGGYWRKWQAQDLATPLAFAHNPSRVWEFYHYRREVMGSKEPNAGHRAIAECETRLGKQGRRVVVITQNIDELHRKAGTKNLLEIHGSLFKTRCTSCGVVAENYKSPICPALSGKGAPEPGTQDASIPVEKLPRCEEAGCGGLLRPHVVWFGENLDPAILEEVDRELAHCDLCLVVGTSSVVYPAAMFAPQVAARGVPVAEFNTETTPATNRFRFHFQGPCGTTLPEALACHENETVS
Description: Inhibition of SIRT5 (as SIRT1 IC50 method).

Setting [2] is: Table 2, 37 °C, 30 min, read-out: IC50.
Setting [3] is: Table 3, SITR1 [sic], read-out: Inhibition of SIRT1 deacylation (IC50).

One may read the IC50 as the concentration that gives 50% inhibition. With `COc1cc(C=C2C(=O)OC(C)(c3ccccc3)OC2=O)cc(I)c1O` (stereo not drawn) [Compound S2, 5-(4-hydroxy-3-iodo-5-methoxybenzylidene) -2-methyl-2-phenyl-1,3-dioxane-4,6-dione], at SIRT1 (setting [2]), the IC50 came out at 2.45 ± 0.37 µM.
Take `COc1cc(C=C2C(=O)OC(c3ccccc3)OC2=O)cc(I)c1O` (stereo not drawn) [Compound S6, 5-(4-hydroxy-3-iodo-5-methoxybenzylidene) -2-phenyl-1,3-dioxane-4,6-dione]: the IC50 on SIRT1 (setting [3]) amounted to 0.89 ± 0.01 µM. Moreover, the “effect on decrease of p53 acetylation level” value (shortened to “effect on decrease”) in test [1] is reported as “抑制ATRA诱导的SH-SY5Y细胞分化过程中p53乙酰化水平降低”.
As to `CC1(c2ccccc2)OC(=O)C(=Cc2ccccc2)C(=O)O1` (stereo not drawn) [Compound S8, 5-benzylidene-2-methyl-2-phenyl-1,3-dioxane-4,6-dione], the IC50 at SIRT1 (setting [2]) is more than 50 µM.
Regarding `COc1cc(C=C2C(=O)OC(c3ccccc3)OC2=O)cc(Cl)c1O` (stereo not drawn) [Compound S10, 5-(3-chloro-4-hydroxy-5-methoxybenzylidene) -2-phenyl-1,3-dioxane-4,6-dione], the IC50 on SIRT2 turned out to be 64.4 ± 7.09 µM; on SIRT1 (setting [3]) it was 1.9 ± 0.53 µM; on SIRT3, 204 ± 16.2 µM; on SIRT5 it was 32.5 ± 1.15 µM. Further, the “effect on decrease” value in test [1] is listed as “抑制ATRA诱导的SH-SY5Y细胞分化过程中p53乙酰化水平降低”.
Consider `CC(C)Oc1ccccc1C=C1C(=O)OC(c2ccccc2)OC1=O` (stereo not drawn) [Compound S14, 5-(2-isopropoxybenzylidene) -2-phenyl-1,3-dioxane-4,6-dione], for which the IC50 on SIRT1 (setting [2]) amounted to 14 ± 2.01 µM.
Take `O=C1OC(c2ccccc2)OC(=O)C1=Cc1cc(Cl)c(O)c(Cl)c1` (stereo not drawn) [Compound S15, 5-(3,5-dichloro-4-hydroxybenzylidene) -2-phenyl-1,3-dioxane-4,6-dione]: the IC50 on SIRT1 (setting [3]) was determined as 1.2 ± 0.09 µM. Further, the “effect on decrease” value in test [1] was “抑制ATRA诱导的SH-SY5Y细胞分化过程中p53乙酰化水平降低”.
In the case of `O=C1OC(c2ccccc2)OC(=O)C1=Cc1ccc(OCc2ccc3c(c2)OCO3)cc1` (stereo not drawn) [Compound S17, 5-[4-(1,3-Benzodioxolane-5-alkylmethoxy)benzylidene] -2-phenyl-1,3-dioxane-4,6-dione], the IC50 on SIRT1 (setting [2]) turned out to be 3.41 ± 0.19 µM.
The same measure, in the same setting: for `O=C(COc1ccc(C=C2C(=O)OC(c3ccccc3)OC2=O)cc1)Nc1ccccc1` (stereo not drawn) [Compound S21, 2-{4-[(4,6-Dioxo-2-phenyl-1,3-dioxane-5-ylbenzylidene)methyl]phenoxy} -N-phenylacetamide] the value was 4.51 ± 1.17 µM.
For `COc1cc(OC)c(C=C2C(=O)OC(c3ccccc3)OC2=O)cc1Br` (stereo not drawn) [Compound S22, 5-(5-bromo-2,4-dimethoxybenzylidene) -2-phenyl-1,3-dioxane-4,6-dione], on SIRT1 (setting [2]), the half-inhibitory concentration (IC50) turned out to be 4.89 ± 0.35 µM.
